Target: T1, PI3Kγ (purified recombinant p101/p110γ protein) (Homo sapiens, UniProt P48736)
T1 construct: HA; made in house; host or cells: Spodoptera frugiperda Sf9 cells (baculovirus coinfection)
Assay: PI3Kγ in vitro kinase assay
Assay type: biochemical
Conditions: 20 μM ATP, 25 μM PIP2, G protein β1/γ2 subunits
Procedure: Spodtera frugiperda cells, grown in ESF921 media, were coinfected with baculovirus expressing a glu-tagged p101 and baculovirus expressing an HA-tagged […], at a 3:1 ratio of p101 baculovirus to p110γ baculovirus. Sf9 cells were grown to 1×10^7 total cells/mL in 10 L bioreactors and harvested 48-72 hours post infection. Samples of infected cells were then tested for expression of p101/p110γ PI3 kinase by immunoprecipitation and Western Blot analysis methods (see below).
To purify PI3Kγ, 4 volumes of room temperature hypotonic lysis buffer (1 mM MgCl2, 1 mM DTT, 5 mM EGTA, 1 mM Pefabloc, 0.5 μM aprotinin, 5 μM leupeptin, 2 μM pepstatin, 5 μM E64, pH 8) per gram of cell paste, was poured onto frozen cell pellets with stirring, then lysed in a nitrogen “bomb” at 400 psi (599HC T316, Parr Instrument Co, Moline, Ill.). NaCl was added to 150 mM, and sodium cholate was added to 1% and mixed for another 45 minutes. The lysates were clarified by centrifugation for 25 minutes at 14,000 rpm. The lysates were then loaded over anti-glu-linked Protein-G Sepaharose beads (Covance Research Products, Richmond, Calif.) using 20 mL resin/50 g cell paste. The column was washed with 15 volumes of wash buffer (1 mM DTT, 0.2 mM EGTA, 1 mM Pefabloc, 0.5 μM aprotinin, 5 μM leupeptin, 2 μM pepstatin, 5 μM E64, 150 mM NaCl, 1% sodium cholate, pH 8). PI3Kγ was eluted with 6 column volumes of wash buffer that contain 100 μg/mL of a peptide that competes for binding of the glu tag. The column fractions with the eluted protein (determined by taking OD280 readings) were collected and dialyzed in 0.2 mM EGTA, 1 mM DTT, 1 mM Pefabloc, 5 μM leupeptin, 0.5% sodium cholate, 150 mM NaCl, and 50% glycerol, pH 8. The fractions were stored at −80° C. until further use.
Spodtera frugiperda cells were coinfected with baculovirus expressing a glu-tagged G protein β1 and baculovirus expressing a G protein β2, at a 1:1 ratio of glu-tagged G protein β1 baculovirus to G protein β2 baculovirus. Sf9 cells are grown in 10 L bioreactors and harvested 48-72 hours post infection. Samples of infected cells were tested for G protein β1/β2 expression by Western Blot analysis, as described below. Cell lysates were homogenized and loaded onto a column of glu-tagged beads as in Biological Example 1 and competed off the column with a glu peptide and processed as described in Biological Example 1.
The inhibitory properties of the compounds in Table 1 were assayed in an in vitro PI3K assay. In a 96-well polypropylene plate, each well was spotted with 2 μL of 50 times the desired final concentration of compound in DMSO. Purified recombinant p101/p110γ protein (0.03 μg; ˜2.7 nM) and G protein β1/γ2 subunits (0.09 μg; ˜57.7 nM) for each reaction was combined in the assay buffer (30 mM HEPES, 100 mM NaCl, 1 mM EGTA, and 1 mM DTT). ATP and [γ-^32P-ATP] (0.09 μCi) were added to this mixture so that the final ATP concentration in the reaction was 20 μM. Lipid micelles were formed by sonicating phosphatidylinositol-4,5-diphosphate (PIP2), phosphatidylethanolamine (PE), and Na-cholate in the assay buffer for 10 minutes, adding MgCl2 and incubating on ice for 20 minutes, for final concentrations of 25 μM PIP2, 300 μM PE, 0.02% Na-cholate, and 10 mM MgCl2 in the reaction. The reactions were started by adding equal volumes lipid and enzyme mixture in a total volume of 50 μL, allowed to run for 20 minutes at room temperature, and stopped with 100 μL 75 mM H3PO4. The lipid product was transferred to a glass fiber filter plate and washed with 75 mM H3PO4 several times. The presence of radioactive lipid product (PIP3) was measured by adding Wallac Optiphase mix to each well and counting in a Wallac 1450 Trilux plate reader (PerkinElmer Life Sciences Inc., Boston, Mass. 02118). The IC50 for each compound tested is reported in μM in the Tables above.

T1 sequence (P48736 whole entry, species assumed): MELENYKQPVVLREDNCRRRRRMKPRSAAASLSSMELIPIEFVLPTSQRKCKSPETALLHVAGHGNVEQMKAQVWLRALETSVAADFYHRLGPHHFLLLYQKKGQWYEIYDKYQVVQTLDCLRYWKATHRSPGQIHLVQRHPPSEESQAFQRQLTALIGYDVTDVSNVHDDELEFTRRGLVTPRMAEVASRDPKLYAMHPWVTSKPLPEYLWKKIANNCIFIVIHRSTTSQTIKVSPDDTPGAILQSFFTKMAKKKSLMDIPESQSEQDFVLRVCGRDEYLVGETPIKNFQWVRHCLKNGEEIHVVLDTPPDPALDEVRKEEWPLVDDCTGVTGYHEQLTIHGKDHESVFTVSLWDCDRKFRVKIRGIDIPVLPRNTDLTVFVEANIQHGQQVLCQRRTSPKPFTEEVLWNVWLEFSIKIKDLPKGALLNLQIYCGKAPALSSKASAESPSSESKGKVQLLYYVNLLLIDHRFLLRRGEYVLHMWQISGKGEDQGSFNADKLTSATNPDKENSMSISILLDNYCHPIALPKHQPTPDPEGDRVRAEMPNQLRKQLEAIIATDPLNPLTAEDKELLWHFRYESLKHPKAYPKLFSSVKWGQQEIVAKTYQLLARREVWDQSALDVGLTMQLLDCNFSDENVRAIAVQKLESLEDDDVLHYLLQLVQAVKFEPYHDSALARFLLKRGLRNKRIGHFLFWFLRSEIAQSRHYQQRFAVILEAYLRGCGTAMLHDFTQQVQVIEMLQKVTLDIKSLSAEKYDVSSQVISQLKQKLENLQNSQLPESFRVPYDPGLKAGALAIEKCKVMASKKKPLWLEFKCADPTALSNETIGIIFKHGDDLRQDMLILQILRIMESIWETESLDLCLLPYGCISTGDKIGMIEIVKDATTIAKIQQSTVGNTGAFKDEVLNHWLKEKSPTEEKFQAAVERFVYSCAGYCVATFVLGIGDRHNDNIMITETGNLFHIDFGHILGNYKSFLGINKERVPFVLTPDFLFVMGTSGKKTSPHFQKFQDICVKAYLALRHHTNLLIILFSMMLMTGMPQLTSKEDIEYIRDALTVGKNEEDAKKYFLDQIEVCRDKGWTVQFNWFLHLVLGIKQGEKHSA
T1 sequence (Q8WYR1 whole entry partner, species assumed): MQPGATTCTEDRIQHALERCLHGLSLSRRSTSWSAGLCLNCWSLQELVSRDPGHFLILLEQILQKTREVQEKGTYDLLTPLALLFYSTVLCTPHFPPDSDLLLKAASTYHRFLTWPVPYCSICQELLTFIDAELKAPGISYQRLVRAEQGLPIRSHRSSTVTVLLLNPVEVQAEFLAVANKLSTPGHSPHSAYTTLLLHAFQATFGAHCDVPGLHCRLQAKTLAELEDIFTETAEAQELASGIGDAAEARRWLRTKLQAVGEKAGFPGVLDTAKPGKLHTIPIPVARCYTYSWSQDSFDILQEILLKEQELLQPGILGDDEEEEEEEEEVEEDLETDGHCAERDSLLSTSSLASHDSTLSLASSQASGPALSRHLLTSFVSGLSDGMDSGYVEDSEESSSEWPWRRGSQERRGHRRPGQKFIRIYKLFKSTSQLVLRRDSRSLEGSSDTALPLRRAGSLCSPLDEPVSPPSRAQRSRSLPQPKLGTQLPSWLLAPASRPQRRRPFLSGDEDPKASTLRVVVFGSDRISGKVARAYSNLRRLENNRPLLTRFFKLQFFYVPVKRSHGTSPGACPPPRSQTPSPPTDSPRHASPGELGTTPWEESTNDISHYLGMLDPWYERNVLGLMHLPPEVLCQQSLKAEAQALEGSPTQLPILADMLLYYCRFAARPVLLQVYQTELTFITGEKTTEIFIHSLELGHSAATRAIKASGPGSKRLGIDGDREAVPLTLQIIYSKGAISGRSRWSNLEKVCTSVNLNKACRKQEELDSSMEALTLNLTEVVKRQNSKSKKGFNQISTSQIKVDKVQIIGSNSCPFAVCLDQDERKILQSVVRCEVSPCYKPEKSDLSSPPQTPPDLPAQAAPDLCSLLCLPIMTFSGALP

Row | IC50 [nM] | Compound
1 | 62.5 | CCc1cccc(Oc2c(C(=O)Nc3nn[nH]n3)sc3cc(F)c(OC)cc23)c1 [Example 5, 3-(3-Ethyl-phenoxy)-6-fluoro-5-methoxy-benzo[b]thiophene-2-carboxylic acid (2H-tetrazol-5-yl)-amide]
2 | 33.5 | COc1cc2c(Oc3ccc(C4CCCCC4)cc3)c(C(=O)Nc3nn[nH]n3)sc2cc1F [Example 4, 3-(4-Cyclohexyl-phenoxy)-6-fluoro-5-methoxy-benzo[b]thiophene-2-carboxylic acid (2H-tetrazol-5-yl)-amide]
3 | 2390 | COc1ccc2sc(C(=O)Nc3nnn[nH]3)c(Sc3cccc(C(=O)O)c3)c2c1F [Example 25, 3-[4-Fluoro-5-methoxy-2-(1H-tetrazol-5-ylcarbamoyl)-benzo[b]thiophen-3-ylsulfanyl]-benzoic acid]
4 | 6.5 | COc1cc2c(OC3CCCC(C)(C)C3)c(C(=O)Nc3nn[nH]n3)sc2cc1F (stereo not shown) [Example 13, 3-(3,3-Dimethyl-cyclohexyloxy)-6-fluoro-5-methoxy-benzo[b]thiophene-2-carboxylic acid (2H-tetrazol-5-yl)-amide]
5 | 580 | COc1ccc2sc(C(=O)Nc3nnn[nH]3)c(SC3CCCCC3)c2c1F [Example 21, 3-Cyclohexylsulfanyl-4-fluoro-5-methoxy-benzo[b]thiophene-2-carboxylic acid (1H-tetrazol-5-yl)-amide]
6 | 190 | COc1ccc2sc(C(=O)Nc3nnn[nH]3)c(SC3CCCC3)c2c1F [Example 38, 3-Cyclopentylsulfanyl-4-fluoro-5-methoxy-benzo[b]thiophene-2-carboxylic acid (1H-tetrazol-5-yl)-amide]
7 | 3640 | COc1ccc2sc(C(=O)Nc3nnn[nH]3)c(Sc3cccc(O)c3)c2c1F [Example 23, 4-Fluoro-3-(3-hydroxy-phenylsulfanyl)-5-methoxy-benzo[b]thiophene-2-carboxylic acid (1H-tetrazol-5-yl)-amide]
8 | 19400 | COc1ccc(Sc2c(C(=O)Nc3nnn[nH]3)sc3ccc(OC)c(F)c23)cc1 [Example 33, 4-Fluoro-5-methoxy-3-(4-methoxy-phenylsulfanyl)-benzo[b]thiophene-2-carboxylic acid (1H-tetrazol-5-yl)-amide]
9 | 32.5 | COc1cc2c(Sc3ccccc3)c(C(=O)Nc3nnn[nH]3)sc2cc1F [Example 19, 6-Fluoro-5-methoxy-3-phenylsulfanyl-benzo[b]thiophene-2-carboxylic acid (1H-tetrazol-5-yl)-amide]
10 | 13.5 | COc1cc2c(Oc3ccc(C(C)C)cc3)c(C(=O)Nc3nn[nH]n3)sc2cc1F [Example 6, 6-Fluoro-3-(4-isopropyl-phenoxy)-5-methoxy-benzo[b]thiophene-2-carboxylic acid (2H-tetrazol-5-yl)-amide]
11 | 14900 | COC(=O)CCc1ccc(Sc2c(C(=O)Nc3nnn[nH]3)sc3ccc(OC)c(F)c23)cc1 [Example 28, 3-{4-[4-Fluoro-5-methoxy-2-(1H-tetrazol-5-ylcarbamoyl)-benzo[b]thiophen-3-ylsulfanyl]-phenyl}-propionic acid methyl ester]
12 | 5940 | COc1cccc(Sc2c(C(=O)Nc3nnn[nH]3)sc3ccc(OC)c(F)c23)c1 [Example 32, 4-Fluoro-5-methoxy-3-(3-methoxy-phenylsulfanyl)-benzo[b]thiophene-2-carboxylic acid (1H-tetrazol-5-yl)-amide]
13 | 3.8 | COc1cc2c(O[C@H]3CCC[C@@H](C)C3)c(C(=O)Nc3nn[nH]n3)sc2cc1F (racemic) [Example 9, cis-(±)-6-Fluoro-5-methoxy-3-(3-methyl-cyclohexyloxy)-benzo[b]thiophene-2-carboxylic acid (2H-tetrazol-5-yl)-amide]
14 | 10.5 | COc1cc2c(OC3CCCCC3)c(C(=O)Nc3nn[nH]n3)sc2cc1F [Example 7, 3-Cyclohexyloxy-6-fluoro-5-methoxy-benzo[b]thiophene-2-carboxylic acid (2H-tetrazol-5-yl)-amide]
15 | 62.5 | COc1cc2c(OC3CCOCC3)c(C(=O)Nc3nn[nH]n3)sc2cc1F [Example 14, 6-Fluoro-5-methoxy-3-(tetrahydro-pyran-4-yloxy)-benzo[b]thiophene-2-carboxylic acid (2H-tetrazol-5-yl)-amide]
16 | 20000 | COC(=O)c1ccc(Sc2c(C(=O)Nc3nnn[nH]3)sc3ccc(OC)c(F)c23)cc1 [Example 26, 4-[4-Fluoro-5-methoxy-2-(1H-tetrazol-5-ylcarbamoyl)-benzo[b]thiophen-3-ylsulfanyl]-benzoic acid methyl ester]
17 | 14200 | COC(=O)Cc1ccc(Sc2c(C(=O)Nc3nnn[nH]3)sc3ccc(OC)c(F)c23)cc1 [Example 27, {4-[4-Fluoro-5-methoxy-2-(1H-tetrazol-5-ylcarbamoyl)-benzo[b]thiophen-3-ylsulfanyl]-phenyl}-acetic acid methyl ester]
18 | 470 | COc1cccc(Sc2c(C(=O)Nc3nnn[nH]3)sc3cc(F)c(OC)cc23)c1 [Example 18, 6-Fluoro-5-methoxy-3-(3-methoxy-phenylsulfanyl)-benzo[b]thiophene-2-carboxylic acid (1H-tetrazol-5-yl)-amide]
19 | 11000 | 4-Fluoro-5-methoxy-3-(3-trifluoromethyl-phenylsulfanyl)-benzo[b]thiophene-2-carboxylic acid (1H-tetrazol-5-yl)-amide [Example 29]

Row | Compound | IC50 [nM]
20 | COc1ccc2sc(C(=O)Nc3nnn[nH]3)c(Sc3ccc(C(=O)O)cc3)c2c1F [Example 34, 4-[4-Fluoro-5-methoxy-2-(1H-tetrazol-5-ylcarbamoyl)-benzo[b]thiophen-3-ylsulfanyl]-benzoic acid] | 5950
21 | 3-(4-Cyclohexyl-phenylsulfanyl)-4-fluoro-5-methoxy-benzo[b]thiophene-2-carboxylic acid (1H-tetrazol-5-yl)-amide [Example 37] | 505

Same assay, conditions: 20 μM ATP, 25 μM PIP2, G protein β1/γ2 subunits, table b197

Row | IC50 [nM] | Compound
22 | 35 | COc1cc2c(O[C@H]3CCC[C@H](C)C3)c(C(=O)Nc3nn[nH]n3)sc2cc1F (racemic) [Example 17, trans-(±)-6-Fluoro-5-methoxy-3-(3-methyl-cyclohexyloxy)-benzo[b]thiophene-2-carboxylic acid (2H-tetrazol-5-yl)-amide]

Same assay, conditions: 20 μM ATP, 25 μM PIP2, G protein β1/γ2 subunits, table b284

Row | IC50 [nM] | Compound
23 | 16 | COc1ccc2c(SC3CCCC3)c(C(=O)Nc3nnn[nH]3)sc2c1F [Example 39, 3-Cyclopentylsulfanyl-7-fluoro-6-methoxy-benzo[b]thiophene-2-carboxylic acid (1H-tetrazol-5-yl)-amide]

Same assay, conditions: 20 μM ATP, 25 μM PIP2, G protein β1/γ2 subunits, table b291

Row | IC50 [nM] | Compound
24 | 12 | 3-Cyclohexylsulfanyl-6-fluoro-5-methyl-benzo[b]thiophene-2-carboxylic acid (1H-tetrazol-5-yl)-amide [Example 41]
25 | 11 | COc1cc2c(SC3CCCC3)c(C(=O)Nc3nnn[nH]3)sc2cc1F [Example 42, 3-Cyclopentylsulfanyl-6-fluoro-5-methoxy-benzo[b]thiophene-2-carboxylic acid (1H-tetrazol-5-yl)-amide]

From patent US20050096350A1, “Halo substituted benzo[b]thiophenes as therapeutic agents” (priority 2003, published 2005)
